{"source": "PubChem BioAssay AID2060898", "about": "(Molecular Pharmacology Branch, DTP, NCI, 2025)", "tested_on": "616215-338-R-J1-PDC complex spheroid viability", "assay": "Anticancer human tumor 616215-338-R-J1-PDC patient-derived colon adenocarcinoma cell line growth inhibition [RAS]", "details": "for viability, T/C: stronger effect = lower value", "method_in_brief": "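Agents were tested in combination matrices in half-log decrements from a top concentration at or near clinical Cmax (10 microM if undetermined). Targets were multi-cell spheroids of tumour lines plus HUVEC and MSC stromal cells.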", "data": [{"molecule": "CCC(CC)c1cc(NC2CCC(N)C2)n2nccc2n1", "note": "(centres undefined) + C#Cc1c(F)ccc2cc(O)cc(-c3ncc4c(N5CC6CCC(C5)N6)nc(OCC56CCCN5CC(F)C6)nc4c3F)c12;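 also: spheroids exposed to agents for seven days before viability readout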;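 as to viability, T/C: 100% = DMSO vehicle control viability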", "values": [{"measurement": "IC50", "setting": "curve of first compound, second compound 0.0316 µM", "result": 1780, "unit": "nM"}, {"measurement": "IC50", "setting": "curve of first compound, second compound 0.1 µM", "result": 1780, "unit": "nM"}, {"measurement": "IC50", "setting": "curve of first compound, second compound 0.316 µM", "result": 1840, "unit": "nM"}, {"measurement": "IC50", "setting": "curve of first compound, second compound 1 µM", "result": 1850, "unit": "nM"}, {"measurement": "IC50", "setting": "curve of first compound, second compound 3.16 µM", "result": 1510, "unit": "nM"}, {"measurement": "IC50", "setting": "curve of first compound, second compound 10 µM", "result": 1240, "unit": "nM"}, {"measurement": "viability, T/C", "setting": "second compound 0.0316 µM, first compound 0.0316 µM", "result": 102, "unit": "%"}, {"measurement": "viability, T/C", "setting": "second compound 0.0316 µM, first compound 0.1 µM", "result": 98.3, "unit": "%"}, {"measurement": "viability, T/C", "setting": "second compound 0.0316 µM, first compound 0.316 µM", "result": 109, "unit": "%"}, {"measurement": "viability, T/C", "setting": "second compound 0.0316 µM, first compound 1 µM", "result": 99.3, "unit": "%"}, {"measurement": "viability, T/C", "setting": "second compound 0.0316 µM, first compound 3.16 µM", "result": 0.29, "unit": "%"}, {"measurement": "viability, T/C", "setting": "second compound 0.0316 µM, first compound 10 µM", "result": 1.51, "unit": "%"}, {"measurement": "viability, T/C", "setting": "second compound 0.1 µM, first compound 0.0316 µM", "result": 104, "unit": "%"}, {"measurement": "viability, T/C", "setting": "second compound 0.1 µM, first compound 0.1 µM", "result": 105, "unit": "%"}, {"measurement": "viability, T/C", "setting": "second compound 0.1 µM, first compound 0.316 µM", "result": 96.3, "unit": "%"}, {"measurement": "viability, T/C", "setting": "second compound 0.1 µM, first compound 1 µM", "result": 99.9, "unit": "%"}, {"measurement": "viability, T/C", "setting": "second compound 0.1 µM, first compound 3.16 µM", "result": 0.27, "unit": "%"}, {"measurement": "viability, T/C", "setting": "second compound 0.1 µM, first compound 10 µM", "result": 0.21, "unit": "%"}, {"measurement": "viability, T/C", "setting": "second compound 0.316 µM, first compound 0.0316 µM", "result": 112, "unit": "%"}, {"measurement": "viability, T/C", "setting": "second compound 0.316 µM, first compound 0.1 µM", "result": 111, "unit": "%"}, {"measurement": "viability, T/C", "setting": "second compound 0.316 µM, first compound 0.316 µM", "result": 101, "unit": "%"}, {"measurement": "viability, T/C", "setting": "second compound 0.316 µM, first compound 1 µM", "result": 106, "unit": "%"}, {"measurement": "viability, T/C", "setting": "second compound 0.316 µM, first compound 3.16 µM", "result": 0.21, "unit": "%"}, {"measurement": "viability, T/C", "setting": "second compound 0.316 µM, first compound 10 µM", "result": 1.88, "unit": "%"}, {"measurement": "viability, T/C", "setting": "second compound 1 µM, first compound 0.0316 µM", "result": 105, "unit": "%"}, {"measurement": "viability, T/C", "setting": "second compound 1 µM, first compound 0.1 µM", "result": 110, "unit": "%"}, {"measurement": "viability, T/C", "setting": "second compound 1 µM, first compound 0.316 µM", "result": 113, "unit": "%"}, {"measurement": "viability, T/C", "setting": "second compound 1 µM, first compound 1 µM", "result": 106, "unit": "%"}, {"measurement": "viability, T/C", "setting": "second compound 1 µM, first compound 3.16 µM", "result": 1.09, "unit": "%"}, {"measurement": "viability, T/C", "setting": "second compound 1 µM, first compound 10 µM", "result": 1.83, "unit": "%"}, {"measurement": "viability, T/C", "setting": "second compound 3.16 µM, first compound 0.0316 µM", "result": 115, "unit": "%"}, {"measurement": "viability, T/C", "setting": "second compound 3.16 µM, first compound 0.1 µM", "result": 111, "unit": "%"}, {"measurement": "viability, T/C", "setting": "second compound 3.16 µM, first compound 0.316 µM", "result": 121, "unit": "%"}, {"measurement": "viability, T/C", "setting": "second compound 3.16 µM, first compound 1 µM", "result": 77.7, "unit": "%"}, {"measurement": "viability, T/C", "setting": "second compound 3.16 µM, first compound 3.16 µM", "result": 0.19, "unit": "%"}, {"measurement": "viability, T/C", "setting": "second compound 3.16 µM, first compound 10 µM", "result": 1.03, "unit": "%"}, {"measurement": "viability, T/C", "setting": "second compound 10 µM, first compound 0.0316 µM", "result": 83.3, "unit": "%"}, {"measurement": "viability, T/C", "setting": "second compound 10 µM, first compound 0.1 µM", "result": 74.5, "unit": "%"}, {"measurement": "viability, T/C", "setting": "second compound 10 µM, first compound 0.316 µM", "result": 108, "unit": "%"}, {"measurement": "viability, T/C", "setting": "second compound 10 µM, first compound 1 µM", "result": 61.3, "unit": "%"}, {"measurement": "viability, T/C", "setting": "second compound 10 µM, first compound 3.16 µM", "result": 3.3, "unit": "%"}, {"measurement": "viability, T/C", "setting": "second compound 10 µM, first compound 10 µM", "result": 0.3, "unit": "%"}]}, {"molecule": "C#Cc1c(F)ccc2cc(O)cc(-c3ncc4c(N5CC6CCC(C5)N6)nc(OCC56CCCN5CC(F)C6)nc4c3F)c12", "note": "(centres undefined)", "values": [{"measurement": "viability, T/C", "setting": "compound 0.0316 µM", "result": "107% [middle of 8 runs]"}, {"measurement": "viability, T/C", "setting": "compound 0.1 µM", "result": "107% [middle of 8 runs]"}, {"measurement": "viability, T/C", "setting": "compound 0.316 µM", "result": "110% [middle of 8 runs]"}, {"measurement": "viability, T/C", "setting": "compound 1 µM", "result": "108% [middle of 8 runs]"}, {"measurement": "viability, T/C", "setting": "compound 3.16 µM", "result": "102% [middle of 8 runs]"}, {"measurement": "viability, T/C", "setting": "compound 10 µM", "result": "70.6% [middle of 8 runs]"}, {"measurement": "IC50", "setting": "compound alone, run of 06/10/2024", "result": "> 10000", "unit": "nM"}]}]}
